According to US8546556B2, “Carbocyclic alpha-L-bicyclic nucleic acid analogs” (Isis Pharmaceuticals, Inc, priority 2007, dated 2013):

System: snake venom phosphodi-esterase (SVPD)
Conditions: SVPD 0.0005 U/mL, 50 mM Tris-HCl pH 7.5, 8 mM MgCl2, 37° C., oligomer 5 μm; full-length oligomer by IP-HPLC/MS
Experimental: [drawing 26] • The nuclease stability was determined after treatment with snake venom phosphodi-esterase (SVPD). Each of the test oligomers was incubated with SVPD (0.0005 U/mL) in 50 mM Tris-HCl, pH 7.5, 8 mM MgCl2 at 37° C. to a final concentration of 5 μm in a total volume of 400 μL. At each time point, a 50 μL aliquot and quenching buffer (8 M Urea, 50 mM EDTA) was placed in a 500 μL, microfuge tube. Kinetic time points were taken at 0, 0.5, 1, 1.5, 2, and 4 minutes for 7157; 0, 0.5, 1, 1.5, 2, 2.5, 3 and 5 minutes for 440140. The samples were then cooled on ice and spun in a Microfuge to bring the entire volume to the bottom of the tube. Samples were kept frozen until ready for LC/MS analysis.
For each sample the oligomer and metabolites were separated and analyzed using IP-HPLC/MS techniques. Samples were diluted to a concentration of 1 μM with quenching buffer in a microsampling vial and 50 μL of the sample was injected into the IP-HPLC column (YMC ODS-AQ™ 1.0 mm×150 mm, 3 μm, 120 A°). The loading buffer used was 25 mM TBAA (tributyl ammonium acetate) in 25% acetonitrile. […] The percentages of the full-length oligomers were calculated by integration using Caesar v. 6 software (Senetec Software, New Jersey) and the oligonucleotide half-lives were calculated using GraphPad Prism 4.

Q: How did the “Half Life” value turn out when TTTTTTTTTTTT [ISIS 7157] was run?
A: 24 s
